Laboratory results published in BindingDB's records for doi:10.1021/jm030272n (Procter & Gamble Pharmaceuticals, 2003).

What was measured:
[1] = biological target: DNA gyrase (Escherichia coli); assay: Inhibition of Escherichia coli Quinolone resistant gyrase Supercoiling activity
[2] = biological target: DNA gyrase (Escherichia coli); assay: Inhibition effect on Escherichia coli Wild Type DNA gyrase Supercoiling activity

N[C@H]1CCCN(c2c(F)cc3c(=O)c(C(=O)O)cn(C4CC4)c3c2F)C1
IC50 [1]: 71.5 µM
IC50 [2]: 8.8 µM
